The source made the active and inactive calls. The rule behind the calls is not given here.
target: Peptidyl-prolyl cis-trans isomerase FKBP1A (Homo sapiens) (UniProt P62942); experiment: FKBP12 binders, biophysical, NMR detection (AID 608); conditions: NMR binding, purified FKBP12
Sequence (P62942 whole entry, looked up): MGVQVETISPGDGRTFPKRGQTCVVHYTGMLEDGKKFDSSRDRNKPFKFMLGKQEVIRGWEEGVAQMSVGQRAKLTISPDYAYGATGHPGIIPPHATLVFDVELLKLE

Row | Compound | Kd
1 | C[C@H]1OC(O[C@H]2[C@@H](O)CC(O[C@H]3[C@@H](O)C[C@H](O[C@H]4CC[C@]5(C)C6CC[C@]7(C)[C@@H](C8=CC(=O)OC8)[C@@H](O)C[C@]7(O)[C@@H]6CC[C@@H]5C4)O[C@@H]3C)O[C@@H]2C)C[C@H](O)C1O (some centres not stated) | > 4 mM (inactive)
2 | O=S(=O)(Nc1ccc(Cl)c(Cl)c1)N1CCOCC1 | inactive
3 | Cc1nn(-c2ccccc2C(=O)O)c(=O)c2ccccc12 | > 4 mM (inactive)
4 | CN1C(=O)C(Cc2c[nH]c3ccccc23)C(=O)N(C)C1=O | > 4 mM (inactive)
5 | Cc1nc2ccccc2n1S(=O)(=O)N1CCOCC1 | inactive
6 | O=C(COc1ccccc1)N1CCc2ccccc2C1 | > 4 mM (inactive)
7 | Cc1cc(C)nc(N(C#N)Cc2ccccc2)n1 | > 4 mM (inactive)
8 | c1ccc(Cc2nnc3sc(-c4cccnc4)nn23)cc1 | > 4 mM (inactive)
9 | Nc1ccc(C2SCCS2)cc1 | > 4 mM (inactive)
10 | CCn1c(-c2c[nH]c3ccccc23)n[nH]c1=S | > 4 mM (inactive)
11 | c1ccc(Cc2nnc3sc(-c4ccccn4)nn23)cc1 | > 4 mM (inactive)
12 | NC(=O)c1cccc2c1OCCO2 | > 4 mM (inactive)
13 | O=C(OC[C@H]1O[C@H](OC(=O)c2cc(O)c(O)c(OC(=O)c3cc(O)c(O)c(O)c3)c2)[C@H](OC(=O)c2cc(O)c(O)c(OC(=O)c3cc(O)c(O)c(O)c3)c2)[C@@H](OC(=O)c2cc(O)c(O)c(OC(=O)c3cc(O)c(O)c(O)c3)c2)[C@@H]1OC(=O)c1cc(O)c(O)c(OC(=O)c2cc(O)c(O)c(O)c2)c1)c1cc(O)c(O)c(OC(=O)c2cc(O)c(O)c(O)c2)c1 | > 4 mM (inactive)
14 | CC(=O)Nc1ccc(C(=O)NC2CCSC2=O)cc1 (configuration not stated) | > 4 mM (inactive)
15 | O=C(O)c1ccc(NC(=O)c2cccs2)cc1 | > 4 mM (inactive)
16 | C[C@H]1[C@H](C)CC[C@]2(C(=O)O)CC[C@]3(C)C(=CCC4[C@@]5(C)C[C@@H](O)[C@H](O)[C@@](C)(CO)C5[C@H](O)C[C@]43C)[C@H]12 (some centres not stated) | > 4 mM (inactive)
17 | N#Cc1ccccc1Cn1c(-c2cscn2)nc2ccccc21 | inactive
18 | CC(=O)NC(=S)Nc1ccc(S(N)(=O)=O)cc1 | > 4 mM (inactive)
19 | O=S1(=O)CCC(NC(=S)N2CCOCC2)C1 (configuration not stated) | 0.0474 mM
20 | O=C1C2CCCCC2C(=O)N1c1ccc(O)cc1 (configuration not stated) | > 4 mM (inactive)
21 | O=c1c(O)c(-c2ccccc2)oc2ccccc12 | > 4 mM (inactive)
22 | CC(=O)c1cccc(NC(=O)NN2CCOCC2)c1 | > 4 mM (inactive)
23 | CSc1ccn(CCC(=O)O)c(=O)n1 | > 4 mM (inactive)

Row | Compound | Kd
24 | CN1CCN(C(=O)C2CCCNC2)CC1 (configuration not stated) | > 4 mM (inactive)
25 | Cc1ccc(-c2nn(C)c(=O)c3ccccc23)cc1CO | > 4 mM (inactive)
26 | COc1ccc(-c2nnc(-c3ccc(N)cc3)o2)cc1 | > 4 mM (inactive)
27 | O=c1[nH]c(NCCO)nnc1Cc1ccccc1 | > 4 mM (inactive)
28 | Cn1c(=O)c2c([nH]c(=O)n2C)n(C)c1=O | > 4 mM (inactive)
29 | Cc1onc(-c2ccccc2)c1C(=O)O | > 4 mM (inactive)
30 | CCCSc1nnc2[nH]c(=O)cc(N)n12 | > 4 mM (inactive)
31 | Cc1ccc2[nH]c3nc(=S)[nH]nc3c2c1 | > 4 mM (inactive)
32 | O=C(O)c1ccc(N2CCOCC2)nc1 | > 4 mM (inactive)
33 | COc1ccc(-c2ccc(SCC(N)=O)nn2)cc1 | > 4 mM (inactive)
34 | Nc1scc[n+]1CC(=O)[O-] | > 4 mM (inactive)
35 | Cn1c(CNc2ccccc2)cc(=O)n(C)c1=O | > 4 mM (inactive)
36 | Cc1nnsc1C(=O)Nc1ccccc1[N+](=O)[O-] | > 4 mM (inactive)
37 | S=C(CN1CCCC1=S)N1CCOCC1 | > 4 mM (inactive)
38 | Cc1nnc2ccc(N3CCCC3)nn12 | > 4 mM (inactive)
39 | Cc1scc(C(=O)Nn2cnnc2)c1-c1ccccc1 | > 4 mM (inactive)
40 | Cn1c(SCC(=O)NCCO)nc2ccccc2c1=O | > 4 mM (inactive)
41 | COC(=O)C1=CCCN(C)C1 | > 4 mM (inactive)
42 | Cc1sc2nc(SCC(=O)N(C)C)[nH]c(=O)c2c1C | > 4 mM (inactive)
43 | Cc1ccc(-n2nnnc2SCC(N)=O)c(C)c1 | > 4 mM (inactive)
44 | CN1C(=O)CC[C@H]1c1cccnc1 | > 4 mM (inactive)
45 | CC1(C)Cc2c(c(-c3ccco3)[nH]c(=O)c2C#N)CO1 | > 4 mM (inactive)
46 | OCc1cc2ccccc2o1 | > 4 mM (inactive)

Row | Compound | Kd
47 | O=Cc1c(N2CCOCC2)nc2ccccn2c1=O | > 4 mM (inactive)
48 | O=c1c(-c2cc(O)c(O)c(O)c2)coc2cc(O)c(O)c(O)c12 | > 4 mM (inactive)
49 | O=C(Nc1ccc(N2CCCC2=O)cc1)c1cccc(F)c1 | > 4 mM (inactive)
50 | CC(=O)Cc1nsc(NC(=O)c2ccc(C)cc2)n1 | > 4 mM (inactive)
51 | O=c1c2ccccc2nc(-c2ccco2)n1-c1nccs1 | > 4 mM (inactive)
52 | NC(N)=Nc1nc2ccccc2o1 | > 4 mM (inactive)
53 | COC(=O)C1=C(C)N(Cc2ccco2)C(=O)C1 | > 4 mM (inactive)
54 | CC(=O)Oc1ccc2c(c1C(C)C)CCC1C(C)(C)CCC[C@]21C (some centres not stated) | > 4 mM (inactive)
55 | Cc1oc(-c2ccccc2)cc1CO | > 4 mM (inactive)
56 | O=S(=O)(NCc1ccco1)N1CCOCC1 | > 4 mM (inactive)
57 | NC1=NC(=O)C(Cc2ccccc2)S1 (configuration not stated) | > 4 mM (inactive)
58 | CC(C)c1nnc(N)s1 | > 4 mM (inactive)
59 | N/N=C/c1cccnc1 | > 4 mM (inactive)
60 | CC1=CC(=O)CC(C)(C)C1(O)/C=C/C(C)=C\C(=O)O (configuration not stated) | > 4 mM (inactive)
61 | Nc1ccc2nsnc2c1 | > 4 mM (inactive)
62 | CC(NC(=O)c1cccnc1)c1ccc2c(c1)OCO2 (configuration not stated) | > 4 mM (inactive)
63 | Cc1ncc(C(=O)O)c(-c2ccccc2)n1 | > 4 mM (inactive)
64 | CN1C2CC(OC(=O)[C@H](CO)c3ccccc3)C[C@H]1[C@H]1OC21 (some centres not stated) | > 4 mM (inactive)
65 | O=S(=O)(O)c1nc2ccccc2[nH]1 | > 4 mM (inactive)
66 | Cc1ccccc1NC(=O)c1ccccc1 | > 4 mM (inactive)
67 | Cc1cc(=O)n2[nH]c(N)nc2n1 | > 4 mM (inactive)
68 | CCCCCCCCCCCC1=C(O)C(=O)C=C(O)C1=O | > 4 mM (inactive)
69 | COc1ccc2c(c1)O[C@H]1c3ccc(OC)cc3OC[C@@H]21 | > 4 mM (inactive)

Row | Compound | Kd
70 | Cc1cc(NC(=O)CS(=O)(=O)c2ccccc2)no1 | > 4 mM (inactive)
71 | Cc1ccccc1NC(=O)CC1NCCNC1=O (configuration not stated) | > 4 mM (inactive)
72 | Cc1[nH]c2ccccc2c1C(=O)CSc1ncn[nH]1 | > 4 mM (inactive)
73 | Cc1cc(C(=O)O)n[nH]1 | > 4 mM (inactive)
74 | Cc1cc(C)n(C/C=C/Cn2nc(C)cc2C)n1 | > 4 mM (inactive)
75 | O=C1NC(=S)NC(=O)C1=Cc1ccco1 | > 4 mM (inactive)
76 | CC(CO)NC(=O)C1C=C2c3cccc4[nH]cc(c34)C[C@H]2N(C)C1 (some centres not stated) | > 4 mM (inactive)
77 | NC(=O)C1CCN(Cc2ccccc2)CC1 | > 4 mM (inactive)
78 | OCc1cccc2c1OCCO2 | > 4 mM (inactive)
79 | Cn1c(-c2ccccc2F)n[nH]c1=S | > 4 mM (inactive)
80 | Cc1cc(NS(=O)(=O)Cc2ccccc2)no1 | > 4 mM (inactive)
81 | COc1ccccc1NS(=O)(=O)c1c[nH]c(=O)[nH]c1=O | > 4 mM (inactive)
82 | Cc1ccc(C2NS(=O)(=O)N=C2N)cc1 (configuration not stated) | > 4 mM (inactive)
83 | Cc1ccc(Nc2nc(N)nc(CC#N)n2)cc1 | > 4 mM (inactive)
84 | N#CCCn1ccnc1-c1ccccc1 | > 4 mM (inactive)
85 | COCCn1c(N)nc2c1c(=O)[nH]c(=O)n2C | > 4 mM (inactive)
86 | Cc1ccc(C(=O)Nc2c[nH]c(=O)[nH]c2=O)cc1 | > 4 mM (inactive)
87 | O=NN1C(=O)c2ccccc2C1=O | > 4 mM (inactive)
88 | Cn1c(SCC(N)=O)nc2c1c(=O)[nH]c(=O)n2C | > 4 mM (inactive)
89 | C[C@@H](N)[C@@H](O)c1ccccc1 | > 4 mM (inactive)
90 | CC(=O)Nc1ccc(Cl)c(C(N)=O)c1 | > 4 mM (inactive)
91 | C/C=C(/C)C(=O)O[C@H]1CC[C@@]2(C)[C@@H]3CC[C@H]4[C@]5(O)C[C@H](O)[C@@]6(O)[C@@H](CN7C[C@@H](C)CC[C@H]7[C@@]6(C)O)[C@]5(O)C[C@@]42OC13O | > 4 mM (inactive)
92 | COc1cc2c(c(OC)c1OC)-c1ccc(O)c(=O)cc1[C@@H](NC(C)=O)CC2 | > 4 mM (inactive)

Row | Compound | Kd
93 | COc1cccc(OCC(=O)N2CCOCC2)c1 | inactive
94 | Cc1ccc(S(=O)(=O)CC(=O)N(C)C)cc1 | > 4 mM (inactive)
95 | COc1cc2c(cc1OC)C(=O)OC2 | > 4 mM (inactive)
96 | NC(=O)CSc1nc2ccccc2o1 | > 4 mM (inactive)
97 | COC(=O)C[C@@H]1C2(C)C(=O)[C@@H](CC3=C4CC(O)O[C@@H](c5ccoc5)[C@]4(C)CCC32)[C@H](O)C1(C)C (some centres not stated) | > 4 mM (inactive)
98 | Nc1cccc(NC(=O)c2ccco2)c1 | > 4 mM (inactive)
99 | CCN1CC2(C)CC[C@H](OC)[C@]34C2[C@H](O)C2(OCO[C@@]25C[C@H](OC)[C@H]2C[C@]3(O)C5[C@H]2O)C14 | > 4 mM (inactive)
100 | Cn1ccc(NC(=S)NC2CCCC2)n1 | > 4 mM (inactive)
101 | CC(=O)Oc1c2c(c(CC=C(C)C)c3c1C(=O)C1=C[C@@H]4CC5C(C)(C)OC(C/C=C(\C)C(=O)O)(C4=O)[C@@]15O3)OC(C)(CCC=C(C)C)C=C2 (some centres not stated) | > 4 mM (inactive)
102 | NC(=O)c1cn(-c2ccccc2)nc1-c1cccnc1 | > 4 mM (inactive)
103 | NC1=NC(=O)/C(=C\c2ccccc2)S1 | > 4 mM (inactive)
104 | O=C(O)c1ccc2sccc2c1 | > 4 mM (inactive)
105 | OCc1ccccc1N1CCOCC1 | > 4 mM (inactive)
106 | Cc1ccc(C(=O)N2CCC(C(N)=O)CC2)cc1C | > 4 mM (inactive)
107 | S=C(c1ccc2c(c1)OCO2)N1CCCC1 | > 4 mM (inactive)
108 | NC(=O)Cn1nc(-c2ccco2)ccc1=O | > 4 mM (inactive)
109 | O=C1CS/C(=N/S(=O)(=O)c2ccccc2)N1 | > 4 mM (inactive)
110 | O=C1N=c2ccccc2=C1c1sc(=S)[nH]c1O | > 4 mM (inactive)
111 | CN1CCN(c2ccc(N)cc2)CC1 | > 4 mM (inactive)
112 | S=c1[nH]ncn1-c1ccccc1 | > 4 mM (inactive)

Reference: PubChem BioAssay AID608 (Sanford-Burnham Center for Chemical Genomics, 2007)
